The results in this text go back to US6794406B2, “Indole derivatives” (Bayer Aktiengesellschaft, priority 2000, dated 2004).

By EC50 is commonly meant the midpoint of the concentration-response curve. A higher EC50 goes with weaker potency.

For this experiment, the system named is luciferase gene under the control of a thyroid hormone-regulated promoter (TRE) in HepG2 hepatocarcinoma cell. The experiment can be described thus: T3 promoter assay cell test. Type of experiment: cell-based. To be noted: stably transfected human HepG2 cells; luciferase induction; incubated 48 or 72 hours with costimulator retinolic acid; four replicates. The method, then: The efficacy of the compounds according to the invention can be tested, for example, in vitro by the T3 promoter assay cell test described below:
The test is carried out using a stably transfected, human HepG2 hepatocarcinoma cell which expresses a luciferase gene under the control of a thyroid hormone-regulated promoter. The vector used for the transfection carries, ahead of the luciferase gene, a minimal thymidine kinase promoter having a thyroid hormone-responsive element (TRE), which consists of two inverted palindromes of 12 Bp each and an 8 Bp spacer.
For the test, the cell cultures are inoculated into 96 well plates in Eagle's Minimal Essential Medium with the following additives: glutamine, tricine [N-(tris(hydroxymethyl)methyl)glycine], sodium pyruvate, non-essential amino acids (L-Ala, L-Asn, L-Asp, L-Pro, L-Ser, L-Glu, Gly), insulin, selenium and transferrin. The cultures are grown for 48 hours at 37° C. and under a 10% CO2 atmosphere. Serial dilutions of test substance or reference compound (T3, T4) and costimulator retinolic acid are then added to the test cultures and these are incubated as beforehand for a further 48 or 72 hours. Each substance concentration is tested in four replicates. For the determination of the luciferase induced by T3 or other substances, the cells are then lysed by addition of a Triton- and luciferin-containing buffer (from Promega) and immediately measured luminometrically. The EC50 values of each compound are calculated.
As for `CC(C)c1c[nH]c2ccc(Oc3c(C(F)(F)F)cc(CC(=O)O)cc3C(F)(F)F)cc12` [Example 11, 4-(3-Isopropyl-1H-indol-5-yloxy)-3,5-bis-trifluoromethylphenylacetic acid], the EC50 worked out at 0.5 nM.
With `CC(C)c1c[nH]c2ccc(Oc3c(C(F)(F)F)cc(CCC(=O)O)cc3C(F)(F)F)cc12` [Example 15, 4-(3-Isopropyl-1H-indol-5-yloxy)-3,5-bis-trifluoromethylphenylpropionic acid] the figure was 4 nM; with `Cc1cc(NC(=O)CC(=O)O)cc(Cl)c1Oc1ccc2[nH]cc(C(C)C)c2c1` [Example 6, 3-({3-Chloro-4-[(3-isopropyl-1H-indol-5-yl)oxy]-5-methylphenyl}amino)-3-oxo-propionic acid], 8 nM; with `Cc1cc(NCC(=O)O)cc(C)c1Oc1ccc2[nH]cc(C(C)C)c2c1` [Example 5, N-{4-[(3-Isopropyl-1H-indol-5-yl)oxy]-3,5-dimethylphenyl}glycine], 22 nM.
With `Cc1cc(OCC(=O)O)cc(C)c1Oc1ccc2[nH]cc(C(C)C)c2c1` [Example 16, {4-[(3-Isopropyl-1H-indol-5-yl)oxy]-3,5-dimethylphenoxy}acetic acid] the figure was 21 nM.
